Experimental data as given in patent US6841385B2, “Transcription factor E2F DNA-binding domain inhibitor peptides and their use” (Topotarget UK Limited, priority 1999, dated 2005).
Bridge positions count the residues as written; N and C are the ends. Square brackets hold non-standard residues; d marks the D form. Ends that are not written are not given here. I, II: the chains in the order shown. βAla = NCCC(=O)O

How the values were obtained:
HeLa cells = assay: BrdU incorporation cell proliferation assay, HeLa cells; assay type: cell-based; settings: 24 hrs, dose-dependent
Protocol: (§1) HeLa cells were grown in Dulbecco's Modified Eagle's Medium (DMEM) supplemented with fetal calf serum (FCS) and HL60 cells in RPMI 1640 supplemented with 10% FCS. Cells were treated with peptides in culture medium and incubated overnight before harvesting.
The peptides were tested in further experiments for their effect on cell cycle progression and cell viability. For this purpose, the peptides were conjugated at their C-terminus to a cell penetrating HIV-Tat derived peptide (aa 48-60) (Fawell et al. (1994) Proc. Natl. Acad. Sci. USA 91, 664-668).
(§2) HeLa, 3T3, W138 cells were treated with varying concentration of MAP-4-SEQ ID NO:2-TAT and a control peptide MAP-4-SEQ ID NO:39-TAT wherein SEQ ID NO:39 is SEQ ID NO:2 but containing 2 alanine substitutions at positions 1 and 4, i.e. AVRAHF (SEQ ID NO:39) DNA replication was analysed by BrdU incorporation after 24 hours.
(§3) Four tumor cell lines U2OS (osteosarcoma), C33A (cervical carcinoma), HeLa (cervical carcinoma) and E2F4/ras (derived from primary rat embryo fibroblasts) were treated with the branched peptide MAP-4-SEQ ID NO:2-TAT or mutant control peptide MAP-4-SEQ ID NO:39-TAT for 24 hrs. Cell proliferation was measured using the BrDU proliferation assay from Boehringer Mannheim (Cat No. 1 647 229).

HL60 cells [1] = assay: Growth of HL60 cells treated with peptide; assay type: cell-based
Protocol: as §1, §2
(§4) Effects became visible after 5-24 hours defending on the concentration of the peptide.

HL60 cells [2] = assay: Apoptosis, staining of HL60 cells with Heochst 33342 propidium iodide; assay type: cell-based
Protocol: as §4

HL60 cells [3] = assay: Nuclease-laddering assay (DNA laddering) in HL60 cells; assay type: cell-based
Protocol: Treated cells were collected, washed with PBS, resuspended in lysis buffer (50 mM Tris pH 7.9, 100 mM EDTA, pH 8, 100 mM NaCl, 1% SDS) and 500 μg/ml proteinase K and incubated at 55° C. for 18 h. Cells were then incubated with […] for 1 hour at 37° C., genomic DNA was purified and examined by agarose gel electrophoresis.
as §4

CycA promoter = assay: Transcription from the CycA promoter, HeLa cells transiently transfected with CycA-Luciferase construct; assay type: cell-based
From the text: (§5) This finding is in agreement with the anti-repressor function of E2F in the CycA promoter, (Liu et al, Oncogene (1998), 16, 2957-2963).

SV-40 promoter = assay: Transcription from the SV-40 promoter (control), HeLa cells; assay type: cell-based
From the text: as §5

U2OS (osteosarcoma) = assay: BrDU proliferation assay, U2OS cells; assay type: cell-based; settings: 24 hrs, dose-dependent
Protocol: as §3

[4] = system: C33A (cervical carcinoma); assay: BrDU proliferation assay, C33A cells; assay type: cell-based; settings: 24 hrs, dose-dependent
Protocol: as §3

[5] = system: E2F4/ras (derived from primary rat embryo fibroblasts); assay: BrDU proliferation assay, E2F4/ras cells; assay type: cell-based; settings: 24 hrs, dose-dependent
Protocol: as §3

[6] = target: T1, recombinant E2F1 N1-His (64-301) with DP1 N2-GST (84-249) (human, UniProt Q01094 64-301; Q14186 84-249); assay: deletion analysis; inhibition of E2F DNA binding (band shift)
T1 construct: range 64-301;range 84-249; Both proteins were incubated together at 10 ug/ml in the band shift assay with a 32P-labelled B-myb E2F-site probe; also called recombinant E2F1 and DP1; not shown: His tag from vector pET28b; GST fusion partner

[7] = target: T1, recombinant E2F1 N1-His (64-301) with …; assay: band shift, recombinant E2F1 and DP1, displacement of 32P B-myb E2F-site probe
Protocol: Samples were run on 4% non denaturing polyacrylamide gel in 0.5% TBE at 4° C. Gels were exposed to X-ray films. […] The samples were then incubated for 10 minutes at 30° C. and cooled on ice. ^32P-labelled probe was added, the reaction mixtures were incubated for another 10 minutes at 30° C. and then cooled on ice.
The inhibitory potential of the peptides on E2F function was analysed in band shift assays with recombinant E2F1 and DP1.

T1 sequence (Q01094 64-301, chain 1 of 2): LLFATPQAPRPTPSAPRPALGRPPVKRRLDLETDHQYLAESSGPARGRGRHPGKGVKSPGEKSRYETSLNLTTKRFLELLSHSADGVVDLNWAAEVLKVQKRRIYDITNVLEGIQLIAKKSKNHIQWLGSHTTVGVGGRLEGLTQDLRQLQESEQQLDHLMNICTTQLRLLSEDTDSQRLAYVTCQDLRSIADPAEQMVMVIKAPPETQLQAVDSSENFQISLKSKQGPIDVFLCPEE
T1 sequence (Q14186 84-249, chain 2 of 2): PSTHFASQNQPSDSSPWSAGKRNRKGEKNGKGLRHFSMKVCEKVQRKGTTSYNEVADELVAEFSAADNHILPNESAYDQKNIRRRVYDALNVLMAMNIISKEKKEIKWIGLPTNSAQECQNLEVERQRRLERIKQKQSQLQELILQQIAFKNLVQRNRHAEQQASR

Molecule: I: WVRWHFGRKKRRQRRRPPQKK[βAla] / II: WVRWHFGRKKRRQRRRPPQK / III: WVRWHFGRKKRRQRRRPPQ / IV: WVRWHFGRKKRRQRRRPPQ (amide I:20-IV:C, I:21-II:C, II:20-III:C) [MAP-4-SEQ ID NO:2-TAT]
- inhibition of proliferation (HeLa cells): inhibited proliferation
- inhibition of cell proliferation / cell growth (HL60 cells [1]; HL60 cells, concentrations between 1-5 μM): Inhibition of cell proliferation
- time after which effects became visible (HL60 cells [1]; depending on the concentration of the peptide): 5 to 24 h
- hallmarks of apoptosis after staining (HL60 cells [2]): chromatin condensation and nuclear fragmentation
- DNA laddering (HL60 cells [3]): internucleosomal DNA cleavage
- effect on transcription from CycA-Luciferase construct (CycA promoter): Inhibition of transcription
- effect on the SV-40 promoter (SV-40 promoter): No effect
- inhibition of proliferation (U2OS (osteosarcoma)): inhibited proliferation
- inhibition of proliferation [4]: inhibited proliferation
- inhibition of proliferation [5]: inhibited proliferation

B1: SEQ5-7 (3-13) (RILTFRSGSWY) (peptide)
peptide: RILTFRSGSWY
notes: also called core-region consisting of amino acids 3-13
- inhibitory activity relative to SEQ ID NO:5 [6]: ~50%

B2: peptide SEQ ID NO:4 (IWLSGLSRGVWVSFP) (peptide)
peptide: IWLSGLSRGVWVSFP
notes: Synthetic peptide in the band shift assays
- binding result [7]: binds
